# Source: patent US12150940B2, “WASp-protecting small molecules, compositions, methods and uses thereof in the treatment of innate and acquired immune-related disorders or conditions” (BAR ILAN UNIVERSITY, priority 2016, dated 2024)
# Tests used:
# platelets = assay: Platelet intra-cellular calcium concentration (Indo-1-AM); assay type: cell-based, human; conditions: TRAP-6 10 μM, vs solvent
# Method: Freshly-isolated human platelets were incubated with either control DMSO or the indicated WASp-binding SMCs, specifically, SMC #6 (FIG. 11A), SMC #30 (FIG. 11B), SMC #33 (FIG. 11C) and SMC #34 (FIG. 11D). Platelets were stimulated with TRAP-6 and calcium levels were measured by spectrofluorometer, as described in Experimental procedures. Data are representative of three independent experiments.
# Cells were incubated with 5 μM Indo-1-acetoxymethylester (Indo-1-AM, Teflabs) in Tyrode's buffer at 37° C. for 20 min. The cells were washed once, resuspended in Tyrode's buffer containing 10 mM HEPES and maintained at room temperature for 20 min. The cells were incubated at 37° C. for 5 min before measurements and then stimulated with 10 μM TRAP-6. The Ca^2+ influx was measured by spectrofluorometer using the Synergy 4 Microplate Reader (Bio Tek).
# However, following receptor-mediated stimulation, platelets dramatically elevate their intra-cellular calcium concentrations, which in turn serve as signaling cues that evoke platelet effector functions, including platelet spreading, adhesion and aggregation (Varga-Sabo et al, 2009). Therefore, the ability of WASp-protecting SMCs to upregulate intra-cellular calcium accumulation in activated platelets was next tested. Freshly-isolated human platelets were incubated with SMC #6, #30, #33 and #34 or with the solvent (negative control). Following incubation, platelets were stimulated with thrombin receptor activator peptide TRAP-6 (10 μM) and calcium levels were measured by spectrofluorometer, using Indo-1-AM-based calcium assay as described in Experimental procedures.
# Jurkat T cells = assay: Lymphocyte migration on ICAM-1/SDF-1α-coated cover glasses; assay type: cell-based, human; conditions: tracked over 20 min, mean ± SE
# Method: Jurkat T cells were pretreated with DMSO or the indicated WASp-binding SMCs, and cell migration on ICAM-1/SDF-1α-coated cover glasses was tracked over a 20-min period, as described in Experimental procedures. Each line in FIG. 10A represents one cell. The tracks of five representative cells from each treatment are presented.
# Error bars represent the SE from the mean. P values versus DMSO-treated control cells are presented and were calculated by two-tailed Student's t-test.
# Approximately 1×10^5 lymphocytes were seeded over chambered coverslips (LabTek) pre-coated with 6 μg/ml ICAM-1 and 2 μg/ml SDF-1α. Cells were incubated at 37° C., 5% CO2 and DIC images were acquired with the Zeiss Observer Z1 inverted microscope every 5 s for 20 min under a 20× objective lens using Zen software. The random movement (Displacement and velocity) of the cells was automatically tracked and analyzed using TrackMate plugin of ImageJ software. An individual trace was assigned to each of the analyzed cells.
# A common theme of active lymphocytes is their high migratory ability. This enables them to move within tissues and reach and engage target cells (Burkhardt et al, 2008). Because WASp plays a role in cellular motility, the ability of WASp-binding SMCs to effectively enhance the migration of lymphocytes was tested. The random movement of SMC-treated or control cells was automatically tracked and analyzed using live microscopy, as described in Experimental procedures.
# WIP-WASp interaction = target: T1, WIP-WASp interaction (Homo sapiens, UniProt P42768, K230R/R34Q); assay: FRET analysis of WIP-WASp interaction in activated T-cells expressing CFP-WASp and YFP-WIP; assay type: cell-based; conditions: anti-CD3 stimulatory coverslips, fixed after 5 min; mean ± SE
# T1 construct: expressed in transfected cells
# Method: FIG. 13A: Jurkat T cells stably expressing CFP-WASp and YFP-WIP were treated with WASp-binding SMC #6, SMC #30, SMC #33, SMC #34 or control. The cells were then plated on stimulatory coverslips (coated with an anti-CD3 antibody), and fixed after 5 min. Cells were imaged by confocal microscope, and FRET efficiency was measured by the donor-sensitized acceptor emission technology (see Experimental procedures for details).
# FIG. 13B: graph summarizing the percentage FRET efficiency in cells plated on the stimulatory coverslips, with the indicated treatment. Data are from four independent experiments. Error bars represent the SE from the mean. P values were calculated by two-tailed Student's t-test.
# Spreading assays were performed as previously described (Fried et al, 2014; Barda-Saad 2005). Briefly, T cells (2×10^6 cells/ml) were seeded on the bottom of chambered cover glasses (LabTek) that were pre-coated with anti-CD3 stimulatory monoclonal antibodies (10 μg/ml). The cells were incubated in imaging buffer [RPMI without phenol red containing 10% fetal calf serum (FCS) and 25 mM HEPES] at 37° C., 5% CO2, for the times indicated in the figure legends. Cells were fixed for 25 min with 4% paraformaldehyde in phosphate-buffered saline (PBS) and then were washed three times with PBS.
# Double-color FRET was performed as described previously (Barda-Saad et al, 2005; Pauker, 2011, Pauker, 2012). […] The non-FRET components were calculated and removed with calibration curves derived from images of single-labeled cells containing CFP or YFP, as previously described (Barda-Saad et al, 2005). […] Bleed-through components were calculated as a function of the intensity of the expressed fluorescent proteins with data gathered from single-labeled cell lines. By using the intensity measured pixel by pixel through the different filter sets, as well as cross-talk elements that were isolated from the control, single-labeled cells, the measured FRET was corrected and the actual FRET efficiency at every pixel was determined. The relative FRET efficiency (FRETeff) was calculated on a pixel-by-pixel basis with the following equation: FRETeff=FRETcorr/(FRETcorr+donor)×100%, where FRETcorr is the pixel intensity in the corrected FRET image, and donor is the intensity of the corresponding pixel in the appropriate donor channel image. To increase the reliability of the calculations and to prevent low-level noise from distorting the calculated ratio, the inventors excluded pixels below 50 intensity units, as well as saturated pixels from the calculations, and set their intensities to zero. […] The FRET efficiency in the negative control system was measured and calculated in the same manner as that in the main experiment. […]
# PBMCs = assay: Lymphocyte activation in PBMCs (CD69 and activated LFA-1, flow cytometry); assay type: cell-based, human; conditions: PBMCs stimulated with PMA and Ionomycin, vs control
# Method: Figures show 1×10^6 PBMC cells/ml stimulated with PMA and Ionomycin that were treated with DMSO or WASp-binding SMCs. After incubation, the cells were stained with PE-Cy5™-conjugated mouse anti-human CD69 and lymphocyte activation was measured by flow-cytometry as described in the Experimental procedures. Histograms of DMSO versus SMC #6 (FIG. 8A), SMC #30 (FIG. 8B), SMC #33 (FIG. 8C), and SMC #34 (FIG. 8D) are presented and represent three independent experiments.
# After incubation, the cells were stained with anti-activated LFA-1 antibody (KIM127), followed by staining with Alexa488-Fluor goat anti-mouse IgG1 secondary antibody, and lymphocyte activation was measured by flow-cytometry as described in the Experimental procedures. Histogram of negative control versus SMC #6 is presented.
# PBMCs or Jurkat cells (about 3×10^5 cells) were incubated for 4 h, at 37° C. with 50 ng/ml PMA and 250 ng/ml lonomycin, or 40 ng/ml PMA and 6 μM Ionomycin, respectively, or left untreated. After incubation, the cells were collected and stained with 1 μg/ml anti-active human LFA-1 antibody (purified from KIM127 hybridoma sup, ATCC Cat #: CRL-2838, Sigma) for 30 min in 37° C., followed by staining with Alexa488-Fluor goat anti-mouse IgG1 secondary antibody (Molecular Probes, Cat #: A-21121), 30 min on ice. Cells were then co-stained with PE-Cy5™-conjugated mouse anti-human CD69 (BD Pharmingen, Cat #: 555532) to measure lymphocyte activation.
# Lymphocyte activation is a hallmark of a normal immune response. To test whether treatment with WASp-binding SMCs could upregulate lymphocyte activation, freshly-isolated PBMCs were incubated with SMCs or control (solvent only) and stimulated with PMA and lonomycin. The cells were then stained with two different antibodies, which recognize two lymphocyte activation markers, CD69 and an epitope exposed at the active conformation of the integrin LFA-1 (KIM127). Both were detected by flow-cytometry.
# human WASp = target: T2, human WASp (Homo sapiens, UniProt P42768, K230R/R34Q); assay: MicroScale Thermophoresis (MST) binding, YFP-WASp in HEK 293T cell lysate
# T2 construct: expressed in transfected cells; host or cells: HEK 293T, transient transfection; unpurified cell lysate
# T2 sequence (P42768 1-502 R34Q/K230R): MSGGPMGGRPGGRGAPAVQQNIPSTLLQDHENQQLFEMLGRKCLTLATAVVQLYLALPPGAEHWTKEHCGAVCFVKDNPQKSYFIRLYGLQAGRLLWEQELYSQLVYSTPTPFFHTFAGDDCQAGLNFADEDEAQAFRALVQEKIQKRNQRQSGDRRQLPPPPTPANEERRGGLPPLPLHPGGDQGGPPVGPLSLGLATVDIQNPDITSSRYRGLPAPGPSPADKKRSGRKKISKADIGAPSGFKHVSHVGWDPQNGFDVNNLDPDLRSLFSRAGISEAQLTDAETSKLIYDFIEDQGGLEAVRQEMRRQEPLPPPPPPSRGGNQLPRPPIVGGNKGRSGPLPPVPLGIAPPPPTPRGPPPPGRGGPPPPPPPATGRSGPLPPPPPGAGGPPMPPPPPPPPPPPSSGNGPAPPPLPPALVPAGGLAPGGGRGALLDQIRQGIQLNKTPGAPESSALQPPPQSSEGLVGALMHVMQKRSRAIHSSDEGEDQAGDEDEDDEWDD
# Method: Diluted cell lysates of YFP-WASp/N-WASp/WAVE2-expressing HEK 293T cells were incubated with serially-diluted (100 μM-3 nM) SMCs. The mixed lysates and SMCs were then loaded into standard-treated Monolith™ capillaries and the fluorescence of the samples was measured by the Monolith NT.115 instrument at 60% MST power. Binding curves of WASp with SMC #6 (FIG. 3A), SMC #30 (FIG. 3B), SMC #33 (FIG. 3C), SMC #34 (FIG. 3D) and Y-27632 (FIG. 3E) or of N-WASp (FIG. 3F) or WAVE2 (FIG. 3G) with SMC #34 were generated by the NanoTemper Analysis 2.231 software. Normalized fluorescence (hot fluorescence/initial fluorescence) is plotted as a function of SMC concentration. […]
# YFP-tagged WASp was obtained from cell lysates of Human Embryonic Kidney (HEK) 293T, transiently transfected with YFP-WASp/WAVE2/N-WASp by DNA-calcium phosphate co-precipitation as previously described (Reicher et al, 2012). […] After loading into the instrument (Monolith NT.115, NanoTemper), the samples were measured by standard protocols at 60% MST power. […] KD values were determined using the NanoTemper analysis software (NT Analysis 1.5.37 or 2.2.31).
# Following this in silico screening, the inventors identified eight SMCs (#6, #23, #24, #25, #30, #32, #33, #34, see Table 1). […] The SMCs that specifically bind the degradation pocket of WASp were further evaluated by the inventors.
# T1 sequence (O43516 whole entry partner, one chain of several): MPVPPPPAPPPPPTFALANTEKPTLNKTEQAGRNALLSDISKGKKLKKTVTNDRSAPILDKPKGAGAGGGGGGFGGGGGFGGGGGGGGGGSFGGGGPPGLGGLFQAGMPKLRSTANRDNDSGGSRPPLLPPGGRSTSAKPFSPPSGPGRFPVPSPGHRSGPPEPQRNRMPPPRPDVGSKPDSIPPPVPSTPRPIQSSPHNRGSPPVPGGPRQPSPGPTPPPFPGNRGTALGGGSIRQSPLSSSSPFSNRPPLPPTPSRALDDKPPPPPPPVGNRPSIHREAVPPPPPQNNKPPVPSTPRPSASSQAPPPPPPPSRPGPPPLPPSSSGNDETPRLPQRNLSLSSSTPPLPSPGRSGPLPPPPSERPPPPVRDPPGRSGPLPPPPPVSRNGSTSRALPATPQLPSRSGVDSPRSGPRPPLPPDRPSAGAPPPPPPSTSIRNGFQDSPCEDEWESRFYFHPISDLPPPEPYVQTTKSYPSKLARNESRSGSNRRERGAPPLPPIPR
average FRET efficiency (WIP-WASp interaction) [%],binding to WASp (human WASp),SMILES,intra-cellular calcium concentration in activated platelets (platelets),mean cell displacement (Jurkat T cells),"lymphocyte activation (CD69, activated LFA-1) (PBMCs)"
24.4±1.4,–,"COC(=O)c1ccc2c(=O)n(Cc3ccc(C(=O)NC4CCCC4)cc3)c(=S)[nH]c2c1 [SMC #30, 3-(4-Cyclopentylcarbamoyl-benzyl)-4-oxo-2-thioxo-1,2,3,4-tetrahydro-quinazoline-7-carboxylic acid methyl ester]",dramatically enhanced,41.07±4.69,upregulation of lymphocyte activation
–,did not show binding,C[C@@H](N)[C@H]1CC[C@H](C(=O)Nc2ccncc2)CC1 [Y-27632],–,–,–
